# Reference: patent US6720306B2, “Tetrapartate prodrugs” (priority 1997, dated 2004)
# Tested on: human ovarian carcinoma (A2780)
# Assay: Efficacy of PEG-leu-doxorubicin analogs against subcutaneous human ovarian carcinoma (A2780) xenograft in nude mice
# Format: in vivo
# Conditions: intravenous Qd7 × 3, 30 mg/kg/dose
# Procedure: The efficacy of PEG-leu-doxorubicin analogs against a subcutaneous human ovarian carcinoma (A2780) injected into nude mice was determined as follows.
# Following at least one week of acclimation, tumors were established in nude mice by injecting 1×10^6 […] harvested A2780 ovarian carcinoma cells in a single subcutaneous site, on the left axillary flank region of each animal. The tumor injection site was observed twice weekly and measured once palpable. The tumor volume for each mouse was determined by measuring two dimensions with calipers and calculated using the formula: tumor volume=(length×width^2)/2). When tumors reached the average volume of approximately 80 mm^3, the mice were divided into their respective experimental groups, which consists of vehicle (20 m M sodium phosphate in 0.6% NaCl) controls, Leu-Doxorubicin, compound 1 of Example 1, compound 10 of Example 4, and compound 12 of Example 5). The mice were sorted to evenly distribute tumor size, grouped into 6 mice/cage, and ear punched for permanent identification. Drugs were dosed intravenously via the tail vein once per week for three weeks (Qd7×3). Mouse weight and tumor sizes were measured at the beginning of study and twice weekly through week 5.
# The overall growth of tumors was calculated as the mean tumor volume at one week following the end of the treatment. A percent treatment over control (T/C) value was also calculated when the control group's median tumor size reached approximately 800-1100 mm^3 and again at one week following treatment. The T/C value in percent is a non-quantitative indication of anti-tumor effectiveness.
structure (smiles),measurement,setting,value
"COc1cccc2c1C(=O)c1c(O)c3c(c(O)c1C2=O)C[C@@](O)(C(=O)CO)C[C@@H]3O[C@H]1C[C@H](NC(=O)[C@@H](N)CC(C)C)[C@H](O)[C@H](C)O1 [Leu-Dox, Leucine-doxorubicin]",Tumor Volume (mean ± sem) Day 21,"A2780 xenograft in nude mice, established tumors ~80 mm^3, n = 6/group, day 21",659 ± 173 mm^3
same,T/C (%) At Day 21,median tumor volume treatment vs control one week after final dosage (day 21),19.7%
same,T/C (%) At 1000 mm^3,median tumor volume treatment vs control when control median reached approximately 1000 mm^3,26.3%
